Read-outs that look alike come from different tables or passages of the source.
Legend:
[1] = test system: ABUTH (Abutilon theophrasti); experiment: post-emergence greenhouse test; format: in vivo; conditions: use rate 6.25 g ai/ha, read-out: observed % activity
Outline: (§1)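 Plants grown to 3–20 cm, then sprayed post-emergence with herbicides, solo or mixed, with or without safener, in water as carrier. Damage scored visually 0–100% versus untreated controls at 8 and/or 20 days after treatment.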

[2] = test system: ALOMY (Alopecurus myosuroides); experiment: post-emergence greenhouse test; format: in vivo; conditions: for observed activity in % destruction: 50 g ai/ha; for inhibition at 6.25 g/ha / inhibition at 25 g/ha / inhibition at 50 g/ha: Alopecurus myosuroides, read-out: observed % activity; for inhibition at 6.25 g/ha: use rate 6.25 g ai/ha; for inhibition at 25 g/ha: use rate 25 g ai/ha; for inhibition at 50 g/ha: use rate 50 g ai/ha
Outline: as §1

ELEIN (Eleusine indica) = experiment: post-emergence greenhouse test; format: in vivo; conditions: use rate 6.25 g ai/ha, read-out: observed % activity
Outline: as §1

ERBVI = experiment: post-emergence greenhouse test; format: in vivo; conditions: use rate 12.5 g ai/ha, read-out: observed % activity
Outline: as §1

harmful plants = conditions: known from Y. Yamaji et al. 2006; cited from earlier work

Which inhibition at 6.25 g/ha ([1]; 192 h, 8 DAT) does the source give for Cn1nc(C(F)(F)F)c(CS(=O)(=O)C2=NOC(C)(C)C2)c1OC(F)F [pyroxasulfone, 3-[5-(difluoromethoxy)-1-methyl-3-(trifluoromethyl)pyrazol-4-ylmethylsulfonyl]-4,5-dihydro-5,5-dimethyl-1,2-oxazole] here?
The inhibition at 6.25 g/ha was 40%.

What about the inhibition at 6.25 g/ha ([1]; 480 h, 20 DAT) of the same molecule?
Its inhibition at 6.25 g/ha is 40%.

And the “observed activity in % destruction” value ([2]; 8 DAT)?
Its value is 30%.

And the “observed activity in % destruction” value ([2]; 20 DAT)?
The value was 75%.

And the inhibition at 6.25 g/ha ([2]; 192 h, 8 DAT)?
Its inhibition at 6.25 g/ha is 20%.

What about the inhibition at 25 g/ha ([2]; 192 h, 8 DAT) of the same molecule?
The inhibition at 25 g/ha was 30%.

And the inhibition at 50 g/ha ([2]; 192 h, 8 DAT)?
Its inhibition at 50 g/ha is 30%.

What about the inhibition at 6.25 g/ha ([2]; 480 h, 20 DAT) of the same molecule?
Its inhibition at 6.25 g/ha is 30%.

And the inhibition at 25 g/ha ([2]; 480 h, 20 DAT)?
Its inhibition at 25 g/ha is 55%.

And the inhibition at 50 g/ha ([2]; 480 h, 20 DAT)?
The inhibition at 50 g/ha was 75%.

What about the inhibition at 6.25 g/ha (ELEIN (Eleusine indica); 192 h, 8 DAT) of the same molecule?
The inhibition at 6.25 g/ha was 55%.

What about the inhibition at 6.25 g/ha (ELEIN (Eleusine indica); 480 h, 20 DAT) of the same molecule?
Its inhibition at 6.25 g/ha is 90%.

What about the inhibition at 12.5 g/ha (ERBVI; 192 h, 8 DAT) of the same molecule?
Its inhibition at 12.5 g/ha is 40%.

And the inhibition at 12.5 g/ha (ERBVI; 480 h, 20 DAT)?
Its inhibition at 12.5 g/ha is 75%.

What about the post-emergence activity (harmful plants) of the same molecule?
Its post-emergence activity is “poor”.
